Series [1] deals with Plasmodium falciparum. The series can be described thus: Antimalarial activity against multidrug-resistant Plasmodium falciparum K1 infected human erythrocytes assessed by [3H]hypoxanthine uptake. It counts as functional, organism-based.
Series [2] has as its system Plasmodium berghei. The experiment in a line: Antimalarial activity as reduced parasitaemia at day 4 against Plasmodium berghei N infected TSW mice (Mus musculus) perorally dosed 3 hrs post infection then daily. It counts as functional. Particulars: po.
The subject of series [3] is Plasmodium berghei. The experiment in a line: Antimalarial activity as reduced parasitaemia at day 4 against Plasmodium berghei N infected TSW mice (Mus musculus) at 9 mg/kg perorally dosed 3 hrs post infection then daily. It counts as functional. As to conditions: route oral.
In series [4] the test system is Plasmodium berghei. The experiment in a line: Antimalarial activity as reduced parasitaemia at day 4 against Plasmodium berghei N infected TSW mice (Mus musculus) at 3 mg/kg peroral dose 3 hrs post infection then daily. It counts as functional. Particulars: route oral.
Series [5] is described as follows: (§1) Toxicity in Plasmodium berghei N-infected TSW mice (Mus musculus) assessed as mortality before day 5 at 9 mg/kg, perorally administered 3 hrs after infection daily for 4 consecutive days. Further details: dose 9 mg/kg, route oral. It counts as organism-based. As to conditions: TSW, in vivo, po, read-out: Activity.
Series [6] concerns Mus musculus. The series is described as §1. It counts as organism-based. Further details: dose 9 mg/kg, route oral. As to conditions: in vivo, po, 3 h.
Series [7] has as its system Mus musculus. The series can be described thus: Toxicity in Plasmodium berghei N-infected TSW mice (Mus musculus) assessed as toxic deaths before day 5 at 3 mg/kg, perorally administered 3 hrs after infection daily for 4 consecutive days. It counts as organism-based. As to conditions: in vivo, po. Further details: dose 3 mg/kg, route oral.
For series [8], the system named is Plasmodium falciparum. The series can be described thus: Antimalarial activity against multidrug-resistant Plasmodium falciparum K1 in human erythrocytes as inhibition of [3H]hypoxanthine uptake. It counts as functional, organism-based.

≈ marks a conversion by molar mass, not a printed value.

Broadly, the IC50 is the concentration that inhibits the measured activity by half. For the molecule `COC(=O)[C@]12OC[C@]34[C@H]([C@@H](O)[C@@H]1O)[C@@]1(C)CC(=O)C(O)=C(C)[C@@H]1C[C@H]3OC(=O)[C@H](OC(=O)/C=C(\C)C(C)(C)OC(C)=O)[C@@H]24` [BRUCEANTINOL], the IC50 in series [1] was 0.002 µg/mL (≈ 0.0033 µM).
Same read-out and setting: the value for `COC(=O)[C@@]12OC[C@]34[C@H]([C@@H](O)[C@@H]1O)[C@@]1(C)CC(=O)C(O)=C(C)[C@@H]1C[C@H]3OC(=O)[C@H](OC(=O)/C=C(\C)C(C)C)[C@@H]24` [BRUCEANTIN] was 0.0008 µg/mL (≈ 0.00146 µM).
By ED50 is commonly meant the midpoint of the dose-response relation. A low value points to an effect at a small dose. The inhibition in vivo is the drop in the measured response relative to a control, in per cent. In the case of `COC(=O)[C@@]12OC[C@]34[C@H]([C@@H](O)[C@@H]1O)[C@@]1(C)CC(=O)C(O)=C(C)[C@@H]1C[C@H]3OC(=O)[C@H](OC(=O)CC(C)C)[C@@H]24` [BRUCEINE A], in series [1], half-maximal inhibition (IC50) required 0.011 µg/mL (≈ 0.0211 µM). In series [2], this molecule gave an ED50 of 3.36 mg/kg/day and an ED90 of 26.7 mg/kg/day. Besides, in series [3], the inhibition in vivo at 9 mg/kg turned out to be 72%.
Molecule `COC(=O)[C@@]12OC[C@]34[C@H]([C@@H](O)[C@@H]1O)[C@@]1(C)CC(=O)C(O)=C(C)[C@@H]1C[C@H]3OC(=O)[C@H](OC(C)=O)[C@@H]24` [BRUCEINE B] came in with an IC50 in series [1] of 0.011 µg/mL (≈ 0.0229 µM). Further, in series [2], the ED50 was 0.9 mg/kg/day and the ED90 stood at 2.82 mg/kg/day. This molecule also showed an inhibition in vivo at 3 mg/kg in series [4] of 95%. Besides, the mortality at 3 h in series [5] came to 100%.
In turn, `COC(=O)[C@]12OC[C@]34[C@H]([C@@H](O)[C@@H]1O)[C@@]1(C)CC(=O)C(O)=C(C)[C@@H]1C[C@H]3OC(=O)[C@H](OC(=O)/C=C(\C)C(C)(C)O)[C@@H]24` [BRUCEINE C] showed an IC50 in series [1] of 0.005 µg/mL (≈ 0.00886 µM). This molecule also registered an inhibition in vivo at 3 mg/kg in series [4] of 40%. For the same molecule, the Activity entry in series [6] is “Toxic”.
On to `CC1=CC(=O)[C@@H](O)[C@]2(C)[C@H]3[C@@H](O)[C@H](O)[C@]4(C)OC[C@@]35[C@@H](C[C@@H]12)OC(=O)[C@H](O)[C@]54O` [BRUCEINE D], for which, in series [1], the half-maximal inhibitory concentration (IC50) stood at 0.015 µg/mL (≈ 0.0365 µM). In series [2], the ED50 is 2.79 mg/kg/day and the ED90 turned out to be 8.19 mg/kg/day. Also, the inhibition in vivo at 3 mg/kg in series [4] came out at 50%. The Activity result in series [7] is listed as “Non-toxic”.
For `COC(=O)[C@]12OC[C@]34[C@H]([C@@H](O)[C@@H]1O)[C@@]1(C)CC(=O)C(O)=C(C)[C@@H]1C[C@H]3OC(=O)[C@H](OC(=O)C=C(C)C)[C@@H]24` [BRUSATOL], in series [1], the midpoint of inhibition, the IC50, lay at 0.003 µg/mL (≈ 0.00576 µM). Besides, in series [2], the 50% effect level (ED50) was put at a dose of 1.27 mg/kg/day and the ED90 was 3.03 mg/kg/day. For the same molecule, in series [4], the inhibition in vivo at 3 mg/kg worked out at 98%.
Turning to `COC(=O)[C@]12OC[C@@]34[C@@H](CC5=C(C)C(=O)C(O)=C[C@]5(C)[C@H]3[C@@H](O)[C@@H]1O)OC(=O)[C@H](OC(=O)CC(C)C)[C@@H]24` [DEHYDROBRUCEINE A], the IC50 in series [1] amounted to 0.046 µg/mL (≈ 0.0884 µM).
The same measure, in the same setting: as for `CC1=CC(=O)[C@@H](O)[C@]2(C)[C@H]3[C@@H](O)[C@H](O)[C@]4(CO)OC[C@@]35[C@@H](C[C@@H]12)OC(=O)[C@H](O)[C@]54O` [YADANZIOLIDE A], the figure is 0.031 µg/mL (≈ 0.0727 µM).
In series [8], `COC(=O)[C@]12OC[C@]34[C@H]([C@@H](O)[C@@H]1O)[C@@]1(C)C=C(O[C@@H]5O[C@H](CO)[C@@H](O)[C@H](O)[C@H]5O)C(=O)[C@@H](C)[C@@H]1C[C@H]3OC(=O)[C@H](OC(C)=O)[C@@H]24` [YADANZIOSIDE F] returned an IC50 of 5 µg/mL (≈ 7.78 µM).
For the molecule `COC(=O)[C@]12OC[C@]34[C@H]([C@@H](O)[C@@H]1O)[C@@]1(C)CC(=O)C(O[C@@H]5O[C@H](CO)[C@@H](O)[C@H](O)[C@H]5O)=C(C)[C@@H]1C[C@H]3OC(=O)[C@H](OC(C)=O)[C@@H]24` [YADANZIOSIDE I], it took 22 µg/mL (≈ 34.3 µM) to reach half-maximal inhibition in series [1] (IC50).

Values taken from ChEMBL document CHEMBL1150703, “Plants as sources of antimalarial drugs, Part 4: Activity of Brucea javanica fruits against chloroquine-resistant Plasmodium falciparum in vitro and against Plasmodium berghei in vivo” (J Nat Prod, 1987).
